This is an account of results in US10125138B2, “Triazolotriazinone derivatives having activity a s herbicides” (Syngenta Participations AG, priority 2015, dated 2018).

The structures appear in SMILES notation.

What all share (format): in vivo
Assay [1] has as its system Amaranthus retoflexus (AMARE). The assay can be described thus: Post-emergence glasshouse herbicide test, Amaranthus retoflexus. The note with it: evaluated after 13 days, five point scale. As for the experimental part: (§1) Seeds of a variety of test species are sown in standard soil in pots (Lolium perenne (LOLPE), Solanum nigrum (SOLNI), Amaranthus retoflexus (AMARE), Setaria faberi (SETFA), Echinochloa crus-galli (ECHCG), Ipomoea hederacea (IPOHE)). After cultivation for one day (pre-emergence) or after 8 days cultivation (post-emergence) under controlled conditions in a glasshouse (at 24/16° C., day/night; 14 hours light; 65% humidity), the plants are sprayed with an aqueous spray solution derived from the formulation of the technical active ingredient in acetone/water (50:50) solution containing 0.5% Tween 20 (polyoxyethelyene sorbitan monolaurate, CAS RN 9005-64-5). […] The test plants are then grown in a glasshouse under controlled conditions in a glasshouse (at 24/16° C., day/night; 14 hours light; 65% humidity) and watered twice daily. After 13 days for pre and post-emergence, the test is evaluated for the percentage damage caused to the plant. The biological activities are shown in the following table on a five point scale (5=80-100%; 4=60-79%; 3=40-59%; 2=20-39%; 1=0-19%).

Assay [2] relates to Ipomoea hederacea (IPOHE). The assay can be described thus: Post-emergence glasshouse herbicide test, Ipomoea hederacea. The note with it: evaluated after 13 days, five point scale. As for the experimental part: as §1
In assay [3] the test system is Lolium perenne (LOLPE). The assay can be described thus: Post-emergence glasshouse herbicide test, Lolium perenne. The note with it: applied at 250 g/ha, evaluated after 13 days, five point scale. As for the experimental part: as §1
Assay [4] relates to Amaranthus retoflexus (AMARE). As to the kind of experiment: Pre-emergence glasshouse herbicide test, Amaranthus retoflexus. The note with it: evaluated after 13 days, five point scale. As for the experimental part:
as §1

Assay [5] has as its system Setaria faberi (SETFA). The assay can be described thus: Post-emergence glasshouse herbicide test, Setaria faberi. The following applies: evaluated after 13 days, five point scale. As for the experimental part:
as §1

In assay [6] the test system is Echinochloa crus-galli (ECHCG). As to the kind of experiment: Pre-emergence glasshouse herbicide test, Echinochloa crus-galli. The note with it: evaluated after 13 days, five point scale. As for the experimental part:
as §1

Assay [7] has as its system Setaria faberi (SETFA). As to the kind of experiment: Pre-emergence glasshouse herbicide test, Setaria faberi. The following applies: evaluated after 13 days, five point scale. As for the experimental part: as §1
For assay [8], the system named is Lolium perenne (LOLPE). The assay can be described thus: Pre-emergence glasshouse herbicide test, Lolium perenne. The following applies: applied at 250 g/ha, evaluated after 13 days, five point scale. As for the experimental part:
as §1

Assay [9] relates to Ipomoea hederacea (IPOHE). As to the kind of experiment: Pre-emergence glasshouse herbicide test, Ipomoea hederacea. The note with it: evaluated after 13 days, five point scale. As for the experimental part: as §1
In assay [10] the test system is Echinochloa crus-galli (ECHCG). The assay can be described thus: Post-emergence glasshouse herbicide test, Echinochloa crus-galli. The note with it: evaluated after 13 days, five point scale. As for the experimental part:
as §1

Regarding `O=C1CCCC(=O)C1C(=O)c1nn2cnn(-c3ccccc3)c2nc1=O` [Compound 4.001], the “percentage damage caused to the plant, POST Application AMARE” value in assay [1] (applied at 250 g/ha) was 5 (5=80-100%). In [2] (applied at 250 g/ha), the “percentage damage caused to the plant, POST Application IPOHE” value is given as 5 (5=80-100%). Also, the “percentage damage caused to the plant, POST Application LOLPE” value in the assay with Lolium perenne (LOLPE) [3] is given as 1 (1=0-19%). In assay [4] (applied at 250 g/ha), the “percentage damage caused to the plant, PRE Application AMARE” value is on record as 5 (5=80-100%). The “percentage damage caused to the plant, POST Application SETFA” value in the assay on Setaria faberi (SETFA) [5] (applied at 250 g/ha) is on record as 5 (5=80-100%). Further, the “percentage damage caused to the plant, PRE Application ECHCG” value in assay [6] (applied at 250 g/ha) is listed as 5 (5=80-100%). Moreover, the “percentage damage caused to the plant, PRE Application SETFA” value in the assay with Setaria faberi (SETFA) [7] (applied at 250 g/ha) is recorded as 1 (1=0-19%). The “percentage damage caused to the plant, PRE Application LOLPE” value with Lolium perenne (LOLPE) [8] was 2 (2=20-39%). Also, the “percentage damage caused to the plant, PRE Application IPOHE” value in assay [9] (applied at 250 g/ha) is 1 (1=0-19%). For the same compound, the “percentage damage caused to the plant, POST Application ECHCG” value in [10] (applied at 250 g/ha) was 5 (5=80-100%).
In the case of `O=C(c1nn2cnn(-c3ccc(C(F)(F)F)cc3)c2nc1=O)C1C(=O)C2CCC(C2)C1=O` (stereo not drawn) [Compound 5.008], in assay [1] (1000 g/h), the “percentage damage caused to the plant, POST Application AMARE” value was 5 (5=80-100%). The “percentage damage caused to the plant, POST Application IPOHE” value in assay [2] (1000 g/h) is on record as 5 (5=80-100%). Moreover, in assay [4] (1000 g/h), the “percentage damage caused to the plant, PRE Application AMARE” value is 5 (5=80-100%). The “percentage damage caused to the plant, POST Application SETFA” value in the assay on Setaria faberi (SETFA) [5] (1000 g/h) was 5 (5=80-100%). Moreover, the “percentage damage caused to the plant, PRE Application ECHCG” value in assay [6] (1000 g/h) is given as 5 (5=80-100%). In addition, the “percentage damage caused to the plant, PRE Application SETFA” value with Setaria faberi (SETFA) [7] (1000 g/h) is reported as 5 (5=80-100%). Further, the “percentage damage caused to the plant, PRE Application IPOHE” value in assay [9] (1000 g/h) is listed as 5 (5=80-100%). In assay [10] (1000 g/h), the “percentage damage caused to the plant, POST Application ECHCG” value is given as 5 (5=80-100%).
Regarding `Cc1cccc(-n2ncn3nc(C(=O)C4C(=O)CC(C)CC4=O)c(=O)nc23)c1` (stereo not drawn) [Compound 6.001], the “percentage damage caused to the plant, POST Application AMARE” value in assay [1] (1000 g/h) is listed as 5 (5=80-100%). Also, the “percentage damage caused to the plant, POST Application IPOHE” value in assay [2] (1000 g/h) is 5 (5=80-100%). In addition, the “percentage damage caused to the plant, PRE Application AMARE” value in assay [4] (1000 g/h) is on record as 5 (5=80-100%). Moreover, the “percentage damage caused to the plant, POST Application SETFA” value in the assay with Setaria faberi (SETFA) [5] (1000 g/h) was 5 (5=80-100%). Also, the “percentage damage caused to the plant, PRE Application ECHCG” value in [6] (1000 g/h) is recorded as 5 (5=80-100%). Besides, in the assay on Setaria faberi (SETFA) [7] (1000 g/h), the “percentage damage caused to the plant, PRE Application SETFA” value was 4 (4=60-79%). The “percentage damage caused to the plant, PRE Application IPOHE” value in assay [9] (1000 g/h) is 5 (5=80-100%). Besides, in [10] (1000 g/h), the “percentage damage caused to the plant, POST Application ECHCG” value was 5 (5=80-100%).
Take `O=C1CCCC(=O)C1C(=O)c1nn2cnn(-c3ccc(C(F)(F)F)cc3)c2nc1=O` [Compound 4.008]: the “percentage damage caused to the plant, POST Application AMARE” value in [1] (1000 g/h) is 4 (4=60-79%). In addition, in assay [2] (1000 g/h), the “percentage damage caused to the plant, POST Application IPOHE” value is 5 (5=80-100%). In addition, the “percentage damage caused to the plant, PRE Application AMARE” value in assay [4] (1000 g/h) is recorded as 5 (5=80-100%). The “percentage damage caused to the plant, POST Application SETFA” value in the assay on Setaria faberi (SETFA) [5] (1000 g/h) is on record as 5 (5=80-100%). In assay [6] (1000 g/h), the “percentage damage caused to the plant, PRE Application ECHCG” value is 5 (5=80-100%). In addition, the “percentage damage caused to the plant, PRE Application SETFA” value in the assay with Setaria faberi (SETFA) [7] (1000 g/h) is on record as 5 (5=80-100%). Besides, in [9] (1000 g/h), the “percentage damage caused to the plant, PRE Application IPOHE” value is given as 5 (5=80-100%). Also, in assay [10] (1000 g/h), the “percentage damage caused to the plant, POST Application ECHCG” value was 5 (5=80-100%).
`O=C1CCCC(=O)C1C(=O)c1nn2cnn(-c3cccc(Cl)c3)c2nc1=O` [Compound 4.009]: the “percentage damage caused to the plant, POST Application AMARE” value in assay [1] (1000 g/h) was 5 (5=80-100%). Also, in [2] (1000 g/h), the “percentage damage caused to the plant, POST Application IPOHE” value is 5 (5=80-100%). Besides, the “percentage damage caused to the plant, PRE Application AMARE” value in assay [4] (1000 g/h) is 5 (5=80-100%). The “percentage damage caused to the plant, POST Application SETFA” value in the assay with Setaria faberi (SETFA) [5] (1000 g/h) was 5 (5=80-100%). Besides, the “percentage damage caused to the plant, PRE Application ECHCG” value in [6] (1000 g/h) was 5 (5=80-100%). For the same compound, the “percentage damage caused to the plant, PRE Application SETFA” value in the assay with Setaria faberi (SETFA) [7] (1000 g/h) is 5 (5=80-100%). In addition, the “percentage damage caused to the plant, PRE Application IPOHE” value in assay [9] (1000 g/h) is listed as 5 (5=80-100%). Further, the “percentage damage caused to the plant, POST Application ECHCG” value in [10] (1000 g/h) was 5 (5=80-100%).
